This note sets out measurements from ChEMBL document CHEMBL6115041, “Discovery of AIC263282, a Hepatitis B Virus Capsid Assembly Modulator Ready for Candidate Profiling” (J Med Chem, 2025).

Data set [1] relates to Hepatitis B virus. The data set can be described thus: Antiviral activity against HBV infected in human HePAD38 cells measured after 6 days by qPCR analysis. The class given is functional, organism-based. The conditions noted are these: HePAD38, 144 h. On the technique in general: In qPCR the cycle at which signal appears reflects the starting amount.
The nature of data set [2]: Kinetic solubility of compound. In kind it is physicochemical.
Data set [3] can be described thus: Metabolic stability in mouse liver microsome assessed as liver blood flow by HPLC analysis relative to control. The conditions noted are these: microsomes. In kind it is ADME. (Liver microsomes are a subcellular fraction often used to study metabolism.)
The nature of data set [4]: Cytotoxicity against human HePAD38 cells measured after 6 days by prestoblue reagent based analysis. In kind it is toxicity, cell-based. The conditions noted are these: time 6 day.
Data set [5] has as its target Voltage-gated inwardly rectifying potassium channel KCNH2 (Homo sapiens, UniProt Q12809). The data set can be described thus: Inhibition of human ERG by patch clamp assay. The class given is toxicity. (In general: In patch-clamp work, channel activity is measured electrically.)
The test system of data set [6] is hERG. The data set can be described thus: Selectivity ratio of IC50 for human ERG to EC50 for Antiviral activity against HBV infected in human HePAD38 cells. The class given is toxicity, cell-based. The conditions noted are these: HePAD38 cells infected with HBV (for the EC50), read-out: Ratio IC50/EC50.

Values after ≈ are worked out from the molar mass of the structure shown.

Voltage-gated inwardly rectifying potassium channel KCNH2, sequence (Q12809 whole entry): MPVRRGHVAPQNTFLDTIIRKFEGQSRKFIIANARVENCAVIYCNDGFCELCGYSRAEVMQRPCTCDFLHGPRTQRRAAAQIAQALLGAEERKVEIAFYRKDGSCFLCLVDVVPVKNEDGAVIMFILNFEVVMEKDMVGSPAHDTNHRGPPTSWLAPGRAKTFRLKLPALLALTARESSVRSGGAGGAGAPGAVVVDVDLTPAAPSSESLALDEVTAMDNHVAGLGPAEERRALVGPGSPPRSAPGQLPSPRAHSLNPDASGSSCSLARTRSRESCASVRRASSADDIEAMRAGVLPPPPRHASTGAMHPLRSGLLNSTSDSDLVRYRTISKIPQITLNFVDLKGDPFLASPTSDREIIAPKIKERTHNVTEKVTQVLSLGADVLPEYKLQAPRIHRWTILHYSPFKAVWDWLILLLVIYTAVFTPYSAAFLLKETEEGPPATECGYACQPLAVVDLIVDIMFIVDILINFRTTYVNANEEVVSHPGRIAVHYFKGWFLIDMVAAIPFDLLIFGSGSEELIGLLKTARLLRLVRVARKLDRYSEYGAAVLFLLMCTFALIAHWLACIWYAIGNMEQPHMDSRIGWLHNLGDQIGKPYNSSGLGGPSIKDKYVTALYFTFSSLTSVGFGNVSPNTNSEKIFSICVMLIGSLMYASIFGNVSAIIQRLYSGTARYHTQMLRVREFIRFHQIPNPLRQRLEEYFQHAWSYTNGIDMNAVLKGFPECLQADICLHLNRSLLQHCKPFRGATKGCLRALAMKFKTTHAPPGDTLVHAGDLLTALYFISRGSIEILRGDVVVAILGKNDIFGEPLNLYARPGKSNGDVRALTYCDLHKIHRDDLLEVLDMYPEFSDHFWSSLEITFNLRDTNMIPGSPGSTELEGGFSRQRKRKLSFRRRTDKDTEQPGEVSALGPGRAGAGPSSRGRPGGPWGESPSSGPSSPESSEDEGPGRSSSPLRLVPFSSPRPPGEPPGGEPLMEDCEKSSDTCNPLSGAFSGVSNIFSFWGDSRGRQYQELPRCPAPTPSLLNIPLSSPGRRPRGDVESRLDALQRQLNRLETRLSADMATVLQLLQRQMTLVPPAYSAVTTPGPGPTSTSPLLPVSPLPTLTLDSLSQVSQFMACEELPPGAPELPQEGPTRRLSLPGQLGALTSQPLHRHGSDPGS

As for `CCc1cc(F)cc2[nH]c(C(=O)N3CCN(C(=O)C(=O)NC4(c5cnc(OC)cn5)COC4)C[C@H]3C)cc12`, a half-maximal response in data set [1] (EC50) required 2.5 nM. As to `CCc1cc(F)cc2[nH]c(C(=O)N3CCN(C(=O)C(=O)NC4(c5cnn(C)c5)COC4)C[C@H]3C)cc12`, it took 2.4 nM to reach a half-maximal effect in data set [1] (EC50). Still for that read-out and setting: to `C[C@@H](NC(=O)C(=O)N1CCN(C(=O)c2cc3cc(F)c(F)cc3[nH]2)CC1)C(F)(F)F` belongs 127 nM. Same read-out and setting: to `CC1(NC(=O)C(=O)N2CCN(C(=O)c3cc4cc(F)c(F)cc4[nH]3)CC2)CC(F)(F)C1` belongs 9.8 nM; to `CCc1cc(F)cc2[nH]c(C(=O)N3CCN(C(=O)C(=O)NC4(C)COC4)C[C@H]3C)cc12`, 3.8 nM. In the case of `CCc1cc(F)cc2[nH]c(C(=O)N3CCN(C(=O)C(=O)NC4(C(F)(F)F)CCOCC4)CC3)cc12`, the Kinetic_solubility result in data set [2] is “Not_determined(Insoluble)”. Besides, a half-maximal response in data set [1] (EC50) required 2.4 nM. In addition, the LBF in data set [3] is listed as 56%. The matching figures for `Cc1noc(C2(NC(=O)C(=O)N3CCN(C(=O)c4cc5c(Cl)c(F)ccc5[nH]4)CC3)CC(F)(F)C2)n1`: “Not_determined(Insoluble)”, 18 nM and 44%. With `CN(C)C(=O)C1(NC(=O)C(=O)N2CCN(C(=O)c3cc4cc(F)c(F)cc4[nH]3)CC2)CC(F)(F)C1`, the Kinetic_solubility result in data set [2] is listed as “Not_determined(Insoluble)”. Moreover, in data set [1], it took 160 nM to reach a half-maximal effect (EC50). Besides, in data set [4], the CC50 at 144 h was > 32000 nM. Consider `Cc1cc(F)cc2[nH]c(C(=O)N3CCN(C(=O)C(=O)NC4(C(F)(F)F)CCOCC4)CC3)cc12`, for which the Kinetic_solubility entry in data set [2] was “Not_determined(Insoluble)”. This compound also had a concentration for a half-maximal effect (EC50) in data set [1] of 12 nM. As for `CCc1cc(F)cc2[nH]c(C(=O)N3CCN(C(=O)C(=O)NC4(c5nc(C)no5)CC(F)(F)C4)CC3)cc12`, a half-maximal effect in data set [1] (EC50) was put at 10 nM. Still for that read-out and setting: to `O=C(NC1(c2c[nH]nn2)CC(F)(F)C1)C(=O)N1CCN(C(=O)c2cc3cc(F)c(F)cc3[nH]2)CC1` belongs 54 nM. On to `Cc1noc(C2(NC(=O)C(=O)N3CCN(C(=O)c4cc5c(F)c(F)c(F)cc5[nH]4)CC3)CC(F)(F)C2)n1`, for which the Kinetic_solubility entry in data set [2] is “Not_determined(Insoluble)”. In data set [1], this compound displayed an EC50 of 28 nM. As for `CC1(NC(=O)C(=O)N2CCN(C(=O)c3cc4cc(F)c(F)cc4[nH]3)CC2)CS(=O)(=O)C1`, the Kinetic_solubility entry in data set [2] is recorded as “Not_determined(Insoluble)”. In addition, the EC50 in data set [1] came out at 240 nM. Further, the CC50 at 144 h in data set [4] is > 10000 nM. `CCc1cc(F)cc2[nH]c(C(=O)N3CCN(C(=O)C(=O)NC4(c5ncccn5)COC4)C[C@H]3C)cc12` yielded a half-maximal effective concentration (EC50) in data set [1] of 7 nM.

Consider `CC1(NC(=O)C(=O)N2CCN(C(=O)c3cc4cc(F)c(F)cc4[nH]3)CC2)CCC1`, for which the concentration for a half-maximal effect (EC50) in data set [1] was 34 nM. Same read-out and setting: to `Cc1noc(C2(NC(=O)C(=O)N3CCN(C(=O)c4cc5cc(F)c(F)cc5[nH]4)CC3)CC(F)(F)C2)n1` belongs 13 nM; to `O=C(NC1(c2ccncc2)CCC1)C(=O)N1CCN(C(=O)c2cc3cc(F)c(F)cc3[nH]2)CC1`, 0.79 nM. For `O=C(NC1(C(F)(F)F)CCOCC1)C(=O)N1CCN(C(=O)c2cc3c(Cl)cc(F)cc3[nH]2)CC1`, in data set [2], the Kinetic_solubility entry is listed as “Not_determined(Insoluble)”. In addition, the EC50 in data set [1] stood at 14 nM. In data set [1], `CC1(NC(=O)C(=O)N2CCN(C(=O)c3cc4cc(F)c(F)cc4[nH]3)CC2)CCOCC1` yielded an EC50 of 30 nM. Turning to `CC1(NC(=O)C(=O)N2CCN(C(=O)c3cc4cc(F)c(F)cc4[nH]3)CC2)COC1`, the response in data set [1] was half-maximal at 52 nM (EC50).

`C[C@H]1CN(C(=O)C(=O)NC2(C)CCOCC2)CCN1C(=O)c1cc2cc(F)c(F)cc2[nH]1` gave an EC50 in data set [1] of 60 nM. The same measure, in the same setting: to `O=C(NC1(c2cccnc2)CCC1)C(=O)N1CCN(C(=O)c2cc3cc(F)c(F)cc3[nH]2)CC1` belongs 7.5 nM.

`C[C@@H](NC(=O)C(=O)N1CCN(C(=O)/C=C/c2c(N)cc(F)cc2F)CC1)C(F)(F)F` registered an EC50 in data set [1] of 53 nM. For the compound `Cc1noc(C2(NC(=O)C(=O)N3CCN(C(=O)c4cc5c(Cl)cccc5[nH]4)CC3)CC(F)(F)C2)n1`, the Kinetic_solubility result in data set [2] is listed as “Not_determined(Insoluble)”. This compound registered an EC50 in data set [1] of 51 nM. Take `CCc1cc(F)cc2[nH]c(C(=O)N3CCN(C(=O)C(=O)NC4(C)COC4)CC3)cc12`: a half-maximal effect in data set [1] (EC50) was put at 19 nM. With `Cc1noc(C2(NC(=O)C(=O)N3CCN(C(=O)c4cc5cc(F)c(Cl)cc5[nH]4)CC3)CC(F)(F)C2)n1`, the Kinetic_solubility result in data set [2] was “Not_determined(Insoluble)”. In addition, the 50% effective concentration (EC50) in data set [1] was found to be 28 nM. With `C[C@@H]1CN(C(=O)C(=O)NC2(C)CCOCC2)CCN1C(=O)c1cc2cc(F)c(F)cc2[nH]1`, the midpoint of the response in data set [1], the EC50, lay at 7.5 nM. For the compound `Cc1noc(C2(NC(=O)C(=O)N3CCN(C(=O)c4cc5ccc(Cl)cc5[nH]4)CC3)CC(F)(F)C2)n1`, in data set [2], the Kinetic_solubility entry is “Not_determined(Insoluble)”. The EC50 in data set [1] stood at 92 nM.

Regarding `Cc1noc(C2(NC(=O)C(=O)N3CCN(C(=O)c4cc5ccccc5[nH]4)CC3)CC(F)(F)C2)n1`, the Kinetic_solubility result in data set [2] is “Not_determined(Insoluble)”. For the same compound, in data set [1], the response was half-maximal at 140 nM (EC50).

With `O=C(NC1(C(F)(F)F)CCOCC1)C(=O)N1CCN(C(=O)c2cc3cc(F)c(F)cc3[nH]2)CC1`, in data set [1], the response was half-maximal at 18 nM (EC50). For `O=C(NC1(C(F)(F)F)CC1)C(=O)N1CCN(C(=O)c2cc3cc(F)c(F)cc3[nH]2)CC1`, in data set [2], the Kinetic_solubility entry was “Not_determined(Insoluble)”. Moreover, the EC50 in data set [1] was determined as 26 nM. In addition, in data set [4], the CC50 at 144 h was > 10000 nM. The compound `CCc1cc(F)cc2[nH]c(C(=O)N3CCN(C(=O)C(=O)NC4(c5nc(C)no5)COC4)C[C@H]3C)cc12` gave a 50% effective concentration (EC50) in data set [1] of 2.9 nM. Same read-out and setting: to `CCc1cc(F)cc2[nH]c(C(=O)N3CCN(C(=O)C(=O)NC4(C(F)(F)F)COC4)CC3)cc12` belongs 6.2 nM. Still for that read-out and setting: as for `CCc1cc(F)cc2[nH]c(C(=O)N3CCN(C(=O)C(=O)NC4(c5ccncc5F)COC4)C[C@H]3C)cc12`, the figure is 2.4 nM. Regarding `C[C@@H]1CN(C(=O)C(=O)NC2(C(F)(F)F)COC2)CCN1C(=O)c1cc2cc(F)c(F)cc2[nH]1`, 9800 nM corresponded to half-maximal inhibition in data set [5] (IC50). In data set [6], the selectivity ratio came out at 653. Regarding `O=C(NC1(c2ccccn2)CCC1)C(=O)N1CCN(C(=O)c2cc3cc(F)c(F)cc3[nH]2)CC1`, the solubility kinetic in data set [2] (read-out: Kinetic_solubility) came out at 79 µM (≈ 36.9 µg/mL). In addition, the EC50 in data set [1] came to 24 nM. In data set [4], the 50% cytotoxic concentration (CC50) at 144 h was > 10000 nM. Moreover, the LBF in data set [3] is on record as 43%. Regarding `CCc1cc(F)cc2[nH]c(C(=O)N3CCN(C(=O)C(=O)NC4(c5ccc(C)nc5)COC4)C[C@H]3C)cc12`, in data set [2], the Kinetic_solubility entry was “Not_determined(Insoluble)”. In data set [1], this compound had a 50% effective concentration (EC50) of 1.3 nM. Moreover, the LBF in data set [3] stood at 93%. In turn, `CCc1cc(F)cc2[nH]c(C(=O)N3CCN(C(=O)C(=O)NC4(C(F)(F)F)CCOCC4)C[C@H]3C)cc12` yielded a concentration giving a half-maximal response (EC50) in data set [1] of 2.2 nM. For the compound `Cc1noc(C2(NC(=O)C(=O)N3CCN(C(=O)c4cc5c(F)c(F)ccc5[nH]4)CC3)CC(F)(F)C2)n1`, in data set [2], the Kinetic_solubility entry is “Not_determined(Insoluble)”. The same compound returned an EC50 in data set [1] of 23 nM.

A word on the EC50: it is the concentration needed to bring the measured effect to its halfway point. As a reminder, the CC50 is the concentration giving 50% cytotoxicity. The IC50 is the concentration that inhibits the measured activity by half.
